The molecules below were run against human TRPV3 receptors (Homo sapiens (Human), UniProt Q8NET8) (assay: Calcium flux assay (FLIPR TETRA), inhibition of the 2-APB response). Conditions: recombinant HEK293 cells stably expressing TRPV3, Calcium-4 dye, 2-APB at its EC80.
Chain of human TRPV3 receptors (Q8NET8 whole entry): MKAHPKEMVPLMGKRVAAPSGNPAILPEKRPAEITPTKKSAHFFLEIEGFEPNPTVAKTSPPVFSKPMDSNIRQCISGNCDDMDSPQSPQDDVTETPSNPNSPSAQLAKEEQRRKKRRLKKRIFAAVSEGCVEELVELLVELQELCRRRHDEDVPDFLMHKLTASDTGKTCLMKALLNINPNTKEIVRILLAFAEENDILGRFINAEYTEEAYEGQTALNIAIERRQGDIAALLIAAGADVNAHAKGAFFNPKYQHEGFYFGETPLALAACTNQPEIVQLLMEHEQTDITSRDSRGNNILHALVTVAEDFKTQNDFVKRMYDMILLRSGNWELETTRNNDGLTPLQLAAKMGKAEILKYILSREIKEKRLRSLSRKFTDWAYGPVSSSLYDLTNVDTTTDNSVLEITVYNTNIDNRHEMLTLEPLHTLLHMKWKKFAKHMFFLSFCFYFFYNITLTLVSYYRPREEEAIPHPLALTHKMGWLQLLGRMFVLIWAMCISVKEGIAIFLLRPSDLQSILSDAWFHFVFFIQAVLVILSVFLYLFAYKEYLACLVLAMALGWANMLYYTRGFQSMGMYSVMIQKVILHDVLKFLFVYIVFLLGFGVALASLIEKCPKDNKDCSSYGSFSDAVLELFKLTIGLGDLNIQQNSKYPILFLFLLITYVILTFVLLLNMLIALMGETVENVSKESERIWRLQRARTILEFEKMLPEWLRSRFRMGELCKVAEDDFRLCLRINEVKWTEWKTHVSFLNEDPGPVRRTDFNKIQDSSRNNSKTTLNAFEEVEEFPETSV
Assay type: cell-based
In short: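 Responses are given relative to the maximal 2-APB signal in the absence of compound, using peak fluorescence over baseline. Measured by FLIPR Tetra calcium flux in stable human and mouse TRPV3 HEK293 cells after 90-120 min dark dye incubation.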
`CC(C)[C@H](CO)NCc1nc(C2CCN(C(=O)OC(C)(C)C)CC2)ccc1F` [Example 205, tert-butyl 4-[5-fluoro-6-({[(2R)-1-hydroxy-3-methylbutan-2-yl]amino}methyl)pyridin-2-yl]piperidine-1-carboxylate] gave an IC50 of 2460 nM. `CC(C)[C@H](CO)NCc1nc(C2CCCCCC2)ccc1F` [Example 206] was tested, and the IC50 was 1230 nM. In the case of `CC(C)[C@H](CO)NCc1ccnc(-c2ccc(S(=O)(=O)C(F)(F)F)cc2)n1` [Example 207, (2R)-3-methyl-2-{[(2-{4-[(trifluoromethyl)sulfonyl]phenyl}pyrimidin-4-yl)methyl]amino}butan-1-ol], the IC50 is reported as 680 nM. `O=S(=O)(c1ccc(-c2nccc(CNC3(CO)CCCCC3)n2)cc1)C(F)(F)F` [Example 208, (1-{[(2-{4-[(trifluoromethyl)sulfonyl]phenyl}pyrimidin-4-yl)methyl]amino}cyclohexyl)methanol] gave an IC50 of 13500 nM. `CC[C@H](CO)NCc1ccnc(-c2ccc(S(=O)(=O)C(F)(F)F)cc2)n1` [Example 209, (2R)-2-{[(2-{4-[(trifluoromethyl)sulfonyl]phenyl}pyrimidin-4-yl)methyl]amino}butan-1-ol] was tested, and the IC50 was 1470 nM. In the case of `COCC(CO)NCc1ccnc(-c2ccc(S(=O)(=O)C(F)(F)F)cc2)n1` (stereo not shown) [Example 210, 3-methoxy-2-{[(2-{4-[(trifluoromethyl)sulfonyl]phenyl}pyrimidin-4-yl)methyl]amino}propan-1-ol], the IC50 is reported as 18500 nM. In the case of `CC(C)(O)[C@H](CO)NCc1ccnc(-c2ccc(S(=O)(=O)C(F)(F)F)cc2)n1` [Example 211, (2S)-3-methyl-2-{[(2-{4-[(trifluoromethyl)sulfonyl]phenyl}pyrimidin-4-yl)methyl]amino}butane-1,3-diol], the IC50 is reported as greater than 20000 nM. Work on `C[C@@H](O)[C@@H](CO)NCc1ccnc(-c2ccc(S(=O)(=O)C(F)(F)F)cc2)n1` [Example 212, (2R,3R)-2-{[(2-{4-[(trifluoromethyl)sulfonyl]phenyl}pyrimidin-4-yl)methyl]amino}butane-1,3-diol] yielded an IC50 of 2530 nM. For `CC(C)[C@H](CO)NCc1nc(C2CCC(C(C)(C)C)CC2)ccc1F` (stereo partly drawn) [Example 213, (2R)-2-({[6-(4-tert-butylcyclohexyl)-3-fluoropyridin-2-yl]methyl}amino)-3-methylbutan-1-ol], the IC50 was 790 nM. `CC(C)[C@H](CO)NCc1nc(C2CCC3(CC2)OCCO3)ccc1F` [Example 214, (2R)-2-({[6-(1,4-dioxaspiro[4.5]dec-8-yl)-3-fluoropyridin-2-yl]methyl}amino)-3-methylbutan-1-ol] was tested, and the IC50 was 8280 nM. In the case of `CC(C)[C@H](CO)NCc1nc(C2CCCC3(C2)OCCO3)ccc1F` (stereo partly drawn) [Example 215, (2R)-2-({[6-(1,4-dioxaspiro[4.5]dec-7-yl)-3-fluoropyridin-2-yl]methyl}amino)-3-methylbutan-1-ol], the IC50 is reported as 5670 nM. `CC(C)[C@H](CO)NCc1nc(C2CCC(C(F)(F)F)CC2)ccc1F` (stereo partly drawn) [Example 216, (2R)-2-[({3-fluoro-6-[4-(trifluoromethyl)cyclohexyl]pyridin-2-yl}methyl)amino]-3-methylbutan-1-ol] gave an IC50 of 310 nM. `CC(C)[C@H](CO)NCc1nc(C2CCc3ccccc3C2)ccc1F` (stereo partly drawn) [Example 217, (2R)-2-({[3-fluoro-6-(1,2,3,4-tetrahydronaphthalen-2-yl)pyridin-2-yl]methyl}amino)-3-methylbutan-1-ol] gave an IC50 of 350 nM. In the case of `CC(C)[C@H](CO)NCc1nc(C2CCCOC2)ccc1F` (stereo partly drawn) [Example 218, (2R)-2-({[3-fluoro-6-(tetrahydro-2H-pyran-3-yl)pyridin-2-yl]methyl}amino)-3-methylbutan-1-ol], the IC50 is reported as greater than 20000 nM. `CC(C)[C@H](CO)NCc1nc(C2CCCN(C(=O)OC(C)(C)C)C2)ccc1F` (stereo partly drawn) [Example 219, tert-butyl 3-[5-fluoro-6-({[(2R)-1-hydroxy-3-methylbutan-2-yl]amino}methyl)pyridin-2-yl]piperidine-1-carboxylate] was tested, and the IC50 was 660 nM. Molecule `CC(C)[C@H](CO)NCc1nc(C2CCCC2)ccc1F` [Example 220, (2R)-2-{[(6-cyclopentyl-3-fluoropyridin-2-yl)methyl]amino}-3-methylbutan-1-ol] has an IC50 of 480 nM. With `CC(C)[C@H](CO)NCc1nc(C2=CCC(C(F)(F)F)CC2)ccc1F` (stereo partly drawn) [Example 223, (2R)-2-[({3-fluoro-6-[4-(trifluoromethyl)cyclohex-1-en-1-yl]pyridin-2-yl}methyl)amino]-3-methylbutan-1-ol] the IC50 was 80 nM. With `CC(C)[C@H](CO)NCc1nc(C2=CCC(F)(F)CC2)ccc1F` [Example 224, (2R)-2-({[6-(4,4-difluorocyclohex-1-en-1-yl)-3-fluoropyridin-2-yl]methyl}amino)-3-methylbutan-1-ol] the IC50 was 140 nM. In the case of `CC(C)[C@H](CO)NCc1cccc(-c2ccccc2)n1` [Example 225, (2R)-3-methyl-2-{[(6-phenylpyridin-2-yl)methyl]amino}butan-1-ol], the IC50 is reported as 2920 nM. Work on `CC(C)[C@H](CO)NCc1cccc(-c2cccc([Si](C)(C)C)c2)n1` [Example 226, (2R)-3-methyl-2-[({6-[3-(trimethylsilyl)phenyl]pyridin-2-yl}methyl)amino]butan-1-ol] yielded an IC50 of 600 nM. `CC(C)[C@H](CO)NCc1cccc(-c2ccc([Si](C)(C)C(C)(C)C)s2)n1` [Example 227, (2R)-2-{[(6-{5-[tert-butyl(dimethyl)silyl]thiophen-2-yl}pyridin-2-yl)methyl]amino}-3-methylbutan-1-ol] was tested, and the IC50 was 1800 nM. With `CC(C)[C@H](CO)NCc1nc(-c2ccc(F)c(F)c2)ccc1F` [Example 228, (2R)-2-({[6-(3,4-difluorophenyl)-3-fluoropyridin-2-yl]methyl}amino)-3-methylbutan-1-ol] the IC50 was 140 nM. `CC(C)[C@H](CO)NCc1nc(N2CCC(F)(F)CC2)ncc1F` [Example 231, (2R)-2-({[2-(4,4-difluoropiperidin-1-yl)-5-fluoropyrimidin-4-yl]methyl}amino)-3-methylbutan-1-ol] showed an IC50 of 1530 nM. `CC(C)[C@H](CO)NCc1nc(/C=C/c2cccc(F)c2)ccc1F` [Example 233, (2R)-2-[({3-fluoro-6-[(E)-2-(3-fluorophenyl)ethenyl]pyridin-2-yl}methyl)amino]-3-methylbutan-1-ol] showed an IC50 of 380 nM. With `COc1ccc(C#Cc2ccc(F)c(CN[C@@H](CO)C(C)C)n2)cc1` [Example 235, (2R)-2-[({3-fluoro-6-[(4-methoxyphenyl)ethynyl]pyridin-2-yl}methyl)amino]-3-methylbutan-1-ol] the IC50 was 1110 nM. `CC(C)[C@H](CO)NCc1nc(C#CCC2CCCCC2)ccc1F` [Example 236, (2R)-2-({[6-(3-cyclohexylprop-1-yn-1-yl)-3-fluoropyridin-2-yl]methyl}amino)-3-methylbutan-1-ol] was tested, and the IC50 was 980 nM. Work on `CC(C)(CO)NCc1cccc(-c2cccc([Si](C)(C)C)c2)n1` [Example 237, 2-methyl-2-[({6-[3-(trimethylsilyl)phenyl]pyridin-2-yl}methyl)amino]propan-1-ol] yielded an IC50 of 5750 nM. With `CC(C)[C@H](CO)NCc1nc(C#Cc2ccc(F)cc2)ccc1F` [Example 238, (2R)-2-[({3-fluoro-6-[(4-fluorophenyl)ethynyl]pyridin-2-yl}methyl)amino]-3-methylbutan-1-ol] the IC50 was 290 nM. In the case of `CC(C)[C@H](CO)NCc1nc(C#Cc2ccc(F)c(F)c2)ccc1F` [Example 239, (2R)-2-[({6-[(3,4-difluorophenyl)ethynyl]-3-fluoropyridin-2-yl}methyl)amino]-3-methylbutan-1-ol], the IC50 is reported as 370 nM. In the case of `CC(C)[C@H](CO)NCc1nc(C#CC2CCCCC2)ccc1F` [Example 240, (2R)-2-({[6-(cyclohexylethynyl)-3-fluoropyridin-2-yl]methyl}amino)-3-methylbutan-1-ol], the IC50 is reported as 510 nM. With `CC(C)[C@H](CO)NCc1nc(C#Cc2ccc(C(C)(C)C)cc2)ccc1F` [Example 241, (2R)-2-[({6-[(4-tert-butylphenyl)ethynyl]-3-fluoropyridin-2-yl}methyl)amino]-3-methylbutan-1-ol] the IC50 was 1860 nM. In the case of `Cc1ccc(-c2ccc(F)c(CN[C@@H](CO)C(C)C)n2)s1` [Example 243, (2R)-2-({[3-fluoro-6-(5-methylthiophen-2-yl)pyridin-2-yl]methyl}amino)-3-methylbutan-1-ol], the IC50 is reported as 380 nM. In the case of `CC(C)[C@H](CO)NCc1nc(-c2cc(F)c(F)c(F)c2)ccc1F` [Example 244, (2R)-2-({[3-fluoro-6-(3,4,5-trifluorophenyl)pyridin-2-yl]methyl}amino)-3-methylbutan-1-ol], the IC50 is reported as 160 nM. Work on `CC(C)[C@H](CO)NCc1nc(-c2ccc(F)c(F)c2F)ccc1F` [Example 245, (2R)-2-({[3-fluoro-6-(2,3,4-trifluorophenyl)pyridin-2-yl]methyl}amino)-3-methylbutan-1-ol] yielded an IC50 of 160 nM. For `CC(C)[C@H](CO)NCc1nc(-c2cc(F)c(F)cc2F)ccc1F` [Example 246, (2R)-2-({[3-fluoro-6-(2,4,5-trifluorophenyl)pyridin-2-yl]methyl}amino)-3-methylbutan-1-ol], the IC50 was 160 nM. `CC(C)[C@H](CO)NCc1nc(-c2cc(F)cc(F)c2)ccc1F` [Example 247, (2R)-2-({[6-(3,5-difluorophenyl)-3-fluoropyridin-2-yl]methyl}amino)-3-methylbutan-1-ol] was tested, and the IC50 was 80 nM. In the case of `CC(C)[C@H](CO)NCc1nc(-c2ccc3c(ccn3C)c2)ccc1F` [Example 248, (2R)-2-({[3-fluoro-6-(1-methyl-1H-indol-5-yl)pyridin-2-yl]methyl}amino)-3-methylbutan-1-ol], the IC50 is reported as 1440 nM. In the case of `CC(C)[C@H](CO)NCc1nc(-c2cc3ccccc3n2C)ccc1F` [Example 249, (2R)-2-({[3-fluoro-6-(1-methyl-1H-indol-2-yl)pyridin-2-yl]methyl}amino)-3-methylbutan-1-ol], the IC50 is reported as 350 nM. With `CC(C)[C@H](CO)NCc1nc(-c2cnn(CC3OCCO3)c2)ccc1F` [Example 250, (2R)-2-[({6-[1-(1,3-dioxolan-2-ylmethyl)-1H-pyrazol-4-yl]-3-fluoropyridin-2-yl}methyl)amino]-3-methylbutan-1-ol] the IC50 was greater than 20000 nM. `CC(C)[C@H](CO)NCc1nc(-c2ccoc2)ccc1F` [Example 251, (2R)-2-({[3-fluoro-6-(furan-3-yl)pyridin-2-yl]methyl}amino)-3-methylbutan-1-ol] was tested, and the IC50 was 580 nM.

Reference: US9012651B2, “TRPV3 modulators” (AbbVie Inc., priority 2011, dated 2015)
